Data as given in patent EP3212211B1, “MILK PROTEIN HYDROLYSATE FOR USE IN THE TREATMENT OF DIARRHOEA” (Laboratorios Ordesa, S.l., priority 2014, dated 2016).
“And” between values parts separate entries of the source, which are not always exact repeats. Identical values can stand only once. No end group written: not given here.

How the values were obtained:
[1] = tested on: rats; assay: intestine motility test (activated charcoal transit); assay type: in vivo; conditions: for intestinal transit in relation to RS group: product 30 minutes before charcoal, H1, H2 8.5 g/Kg, P+ (LW) 0.8 g/Kg, L 6.5 g/Kg, loperamide 2 mg/Kg p.o., read 20 minutes after charcoal
Method: Intestine motility was evaluated in rats as in Example 7. The groups were coincident (n=7) except of the omission of R group and that only P^+ (LW 0.8 g/Kg) was tested. The control group included rats treated with loperamide (Lop) at a dose of 2 mg/Kg, and rats treated with the vehicle (water) and with non-hydrolysed cow milk (L group). Loperamide is an anti-diarrhoeic drug that delays intestinal transit and it acts as a positive control in this experiment.
After 30 minutes of the administration of the products under study (P+, L, Lop, H1, H2, water) intestine transit was determined by administering 1 ml of a suspension at 1 % w/v of activated charcoal (Sigma-Aldrich®) in arabic gum (Acofar®, 5 %).
20 minutes later, animals were sacrificed by exsanguination and small intestine was extracted (from pilor to ileocecal). Small intestine was longitudinally disposed over a clean surface. Intestinal distance of charcoal was measured as well as the total intestine length. Results for each animal were expressed as distance of charcoal in relation to intestine length, in percentage form.
Statistical analysis was performed by PASW®Statistics 18 software. Global comparative analysis between groups was performed with Kruskal-Wallis test and further with the non-parametric U test of Mann-Whitney. It was stablished as meaningful level a p value of p<0.05.

[2] = molecular target: T1, recombinant human neprilysin (rhNeprilysin) (Homo sapiens, UniProt P08473); assay: neprilysin inhibition, fluorogenic enzymatic (FRET) assay; assay type: biochemical; conditions: for IC50: pure substance, 37 °C
T1 construct: purchased R&D Systems, Inc
Method: All samples are assayed in triplicate.

[3] = tested on: female Wistar rats; assay: castor oil induced acute diarrhoea in rats; assay type: in vivo; conditions: p.o. 1 h before castor oil, H1, H2 8.5 g/Kg
Method: The effect of the hydrolysates of the invention was tested in a model of induced acute diarrhoea. For this test, female Wistar rats were used (8 weeks old). Animals were provided with 7 weeks by Harlan (Barcelona, Spain) and they rested in the Animal Experimental Service of Facultad de […] de Barcelona (UB) under controlled temperature and humidity conditions with a light:dark cycle of 12 h:12 h with water and food ad libitum. The assay has been conducted under institutional guidelines for animal experimentation established by the Ethical Commitment of Animal Experimentation in the Universidad de Barcelona (CEEA-UB). […] Haematocrit was also determined as basal value before inducing diarrhoea. […] Although the weight was reduced during the assay, the loss was detected in all groups, and it is hypothesized due to the starving period. No differences among groups were detected in the haematocrit. […] The following variables were determined: number of defecations, type (consistency, colour, form, presence or absence of mucus), punctuation (0-4 according to a diarrhoea index), presence or absence of diarrhoea. There were also determined the diarrhoea index (ID), diarrhoea incidence, the percentage of diarrhoeic defecations, as well as the severity of diarrhoeic process. […] The percentage of diarrhoeic defecations (ID≥2) was also determined for each group. […]

[4] = cited from earlier work
[5] = molecular target: Angiotensin Converting Enzymes (ACE); conditions: ACE inhibition; cited from earlier work
[6] = molecular target: recombinant human neprilysin (human, UniProt P08473 53-750); assay: cell-based or functional assay
Chain of recombinant human neprilysin (P08473 53-750 limits assumed): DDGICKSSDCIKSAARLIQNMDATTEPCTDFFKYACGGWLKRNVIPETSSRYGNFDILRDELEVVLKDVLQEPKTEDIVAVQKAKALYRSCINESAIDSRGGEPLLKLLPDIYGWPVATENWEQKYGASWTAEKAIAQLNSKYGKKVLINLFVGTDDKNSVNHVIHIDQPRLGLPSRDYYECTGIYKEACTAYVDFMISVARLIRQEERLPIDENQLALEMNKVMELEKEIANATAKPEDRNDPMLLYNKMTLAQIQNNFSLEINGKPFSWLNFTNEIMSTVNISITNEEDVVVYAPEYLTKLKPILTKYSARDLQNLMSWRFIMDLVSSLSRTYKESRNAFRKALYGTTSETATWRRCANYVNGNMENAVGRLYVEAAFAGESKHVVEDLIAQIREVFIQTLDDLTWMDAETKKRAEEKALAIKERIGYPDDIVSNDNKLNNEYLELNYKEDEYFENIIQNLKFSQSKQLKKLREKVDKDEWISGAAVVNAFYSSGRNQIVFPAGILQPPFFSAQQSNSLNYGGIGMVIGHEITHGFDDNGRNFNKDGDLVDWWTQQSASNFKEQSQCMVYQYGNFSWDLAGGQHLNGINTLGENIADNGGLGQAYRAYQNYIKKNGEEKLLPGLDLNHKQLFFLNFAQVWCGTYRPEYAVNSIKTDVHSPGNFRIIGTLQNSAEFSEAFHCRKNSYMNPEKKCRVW

T1 sequence (P08473 whole entry): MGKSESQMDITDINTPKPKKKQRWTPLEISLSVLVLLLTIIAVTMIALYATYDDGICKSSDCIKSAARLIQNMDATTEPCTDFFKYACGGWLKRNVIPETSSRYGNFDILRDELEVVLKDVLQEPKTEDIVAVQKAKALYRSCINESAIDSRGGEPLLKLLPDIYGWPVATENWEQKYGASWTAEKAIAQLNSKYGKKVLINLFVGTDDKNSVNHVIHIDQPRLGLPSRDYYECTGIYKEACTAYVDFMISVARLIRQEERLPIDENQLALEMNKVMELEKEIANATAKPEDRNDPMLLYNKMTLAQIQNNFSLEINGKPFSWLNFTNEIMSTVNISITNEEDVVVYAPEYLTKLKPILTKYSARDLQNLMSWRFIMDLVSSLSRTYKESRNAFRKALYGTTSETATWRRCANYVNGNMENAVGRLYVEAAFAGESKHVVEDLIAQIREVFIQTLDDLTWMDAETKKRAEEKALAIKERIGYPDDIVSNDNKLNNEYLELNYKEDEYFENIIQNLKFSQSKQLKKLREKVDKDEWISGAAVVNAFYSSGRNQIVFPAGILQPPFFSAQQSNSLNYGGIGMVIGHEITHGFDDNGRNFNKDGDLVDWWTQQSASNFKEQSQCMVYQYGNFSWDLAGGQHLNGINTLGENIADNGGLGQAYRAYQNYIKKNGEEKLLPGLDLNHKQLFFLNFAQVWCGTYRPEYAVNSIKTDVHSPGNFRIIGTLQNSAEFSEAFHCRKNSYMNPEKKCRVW

CC(C)C[C@H](N)C(=O)N[C@@H](Cc1c[nH]c2ccccc12)C(=O)O [LW]
intestinal transit in relation to RS group [1]: does not modify intestinal transit | IC50 [2]: 84.8 µM | IC50 ([2]; dilutions in deionized water): 84.8 µM

CN(C)C(=O)C(CCN1CCC(O)(c2ccc(Cl)cc2)CC1)(c1ccccc1)c1ccccc1 [loperamide]
intestinal transit: distance of charcoal in relation to total small intestine length (D/L) ([1]; 2 mg/Kg p.o., 30 minutes before charcoal, p<0.01 vs RS): 37.8 ± 3.49% | inhibition of intestinal transit ([1]; 2 mg/Kg p.o., versus RS group, p<0.01): 37% | intestinal transit in relation to RS group [1]: delayed intestinal transit

CC(=O)SCC(Cc1ccccc1)C(=O)NCC(=O)OCc1ccccc1 (centres unmarked) [racecadotril]
severity of diarrhoeic process (AUC of the diarrhoea index) ([3]; LW 0.8 g/Kg, racecadotril 40 mg/Kg, L 6.5 g/Kg, 0-3 h and 0-8 h PI (FIG. 8), versus RD group): milder severity of diarrhoeic process than RD group | percentage of diarrhoeic defecations (ID≥2) in relation to the total of defecations ([3]; R 40 mg/Kg, 0-3 h and 0-8 h PI (FIG. 9)): lower in both studied period | water solubility [4]: poor water solubility

IPP
IC50 [5]: 5 to 9 µM

VLGPVRGPFP [SEQ ID NO: 1]
inhibition at 1260 µM ([2]; peptide concentration 1.26 x10^-3 M, 40 minutes at 37 °C): 64.8% | inhibition at 126 µM ([2]; peptide concentration 1.26 x10^-4 M, 40 minutes at 37 °C): 13.2% | inhibition at 12.6 µM ([2]; peptide concentration 1.26 x10^-5 M, 40 minutes at 37 °C): 1.49% | inhibition at 315 µM ([2]; peptide concentration 3.15 x10^-4 M, 40 minutes at 37 °C): 29.5% | inhibition at 630 µM ([2]; peptide concentration 6.30 x10^-4 M, 40 minutes at 37 °C): 46.6% | inhibition at 63 µM ([2]; peptide concentration 6.30 x10^-5 M, 40 minutes at 37 °C): 7.37% | inhibition at 90 µM ([2]; peptide concentration 9.00 x10^-5 M, 40 minutes at 37 °C): 9.41%

VPP
IC50 [5]: 5 to 9 µM

LW [peptide LW (dipeptide of formula (I) X1W, wherein X1 is leucine)]
IC50 of neprilysin inhibition (fluorogenic enzymatic assay, FRET substrate Mca-…[Dnp]-OH) [6]: 0.0269 mg/ml and 84.8 µM

VLGPVRGPFP [peptide of SEQ ID NO: 1 (VLGPVRGPFP)]
IC50 of neprilysin inhibition (fluorogenic enzymatic assay) [6]: 713 µM
